The values below are quoted from earlier work in patent US8389248B2, “Deoxyketohexose isomerase and method for producing deoxyhexose and derivative thereof using same” (priority 2006, dated 2013).

The data set concerns L-rhamnose isomerase. The following applies: for Influence of chelating agents on enzyme activity: chelating agent concurrently present during the assay of the activity.

On to `O=C(O)CN(CCN(CC(=O)O)CC(=O)O)CC(=O)O` [EDTA], for which the “Influence of chelating agents on enzyme activity” value was “hardly inhibited”.
As to `O=C(O)CN(CCOCCOCCN(CC(=O)O)CC(=O)O)CC(=O)O` [EGTA], the “Influence of chelating agents on enzyme activity” value is “hardly inhibited”.
Consider `[Co+2]` [cobalt ion], for which, under “1 mM”, the “Influence of metal ions: inhibition of the enzyme” value is “about 30%”.
